Data as given in patent publication US9221802B2, “Arylethynyl derivatives” (Hoffmann-La Roche Inc., priority 2012, dated 2015).
Read-outs that look alike come from different tables or passages of the source.

How the values were obtained:
human mGlu5a receptor = human mGlu5a receptor (Homo sapiens (Human), UniProt P41594); experiment: Intracellular Ca2+ mobilization assay; assay type: cell-based; details: for EC50: HEK-293 cells expressing human mGlu5a; for Emax: maximal response in % of maximal stimulatory effect of saturating L-glutamate, read-out: Efficacy [%]
Sequence of human mGlu5a receptor (P41594 other isoform, or with tags, fused parts or gaps): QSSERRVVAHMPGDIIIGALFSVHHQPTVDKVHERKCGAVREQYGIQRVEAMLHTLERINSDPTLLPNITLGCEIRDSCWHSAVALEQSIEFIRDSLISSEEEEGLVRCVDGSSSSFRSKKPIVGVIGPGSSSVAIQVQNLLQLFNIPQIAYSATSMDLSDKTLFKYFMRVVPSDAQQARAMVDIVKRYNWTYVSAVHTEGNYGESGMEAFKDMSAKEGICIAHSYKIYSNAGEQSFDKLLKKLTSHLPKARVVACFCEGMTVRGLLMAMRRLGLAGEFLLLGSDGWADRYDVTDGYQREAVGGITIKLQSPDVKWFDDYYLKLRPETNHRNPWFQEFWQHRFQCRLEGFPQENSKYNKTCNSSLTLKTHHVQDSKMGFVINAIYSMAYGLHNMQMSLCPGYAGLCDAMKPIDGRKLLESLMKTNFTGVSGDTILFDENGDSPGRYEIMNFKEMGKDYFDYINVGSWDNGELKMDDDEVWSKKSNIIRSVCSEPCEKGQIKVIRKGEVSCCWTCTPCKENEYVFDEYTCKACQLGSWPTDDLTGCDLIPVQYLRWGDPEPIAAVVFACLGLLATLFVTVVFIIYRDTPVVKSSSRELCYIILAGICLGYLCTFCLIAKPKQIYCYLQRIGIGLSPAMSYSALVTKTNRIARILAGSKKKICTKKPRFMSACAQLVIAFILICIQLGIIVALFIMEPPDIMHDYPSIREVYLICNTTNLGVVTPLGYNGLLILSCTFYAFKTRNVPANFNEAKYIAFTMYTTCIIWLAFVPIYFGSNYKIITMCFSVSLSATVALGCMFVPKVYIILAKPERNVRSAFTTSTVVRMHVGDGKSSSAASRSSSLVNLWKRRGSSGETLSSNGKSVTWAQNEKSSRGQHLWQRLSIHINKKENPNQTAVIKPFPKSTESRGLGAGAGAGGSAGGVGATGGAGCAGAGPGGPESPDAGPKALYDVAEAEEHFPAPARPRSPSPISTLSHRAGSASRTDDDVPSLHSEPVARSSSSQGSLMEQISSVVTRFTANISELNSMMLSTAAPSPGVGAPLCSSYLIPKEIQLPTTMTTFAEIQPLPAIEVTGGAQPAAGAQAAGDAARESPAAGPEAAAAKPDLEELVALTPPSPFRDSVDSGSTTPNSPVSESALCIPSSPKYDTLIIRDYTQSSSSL
Description: A monoclonal HEK-293 cell line stably transfected with a cDNA encoding for the human mGlu5a receptor was generated; for the work with mGlu5 Positive Allosteric Modulators (PAMs), a cell line with low receptor expression levels and low constitutive receptor activity was selected to allow the differentiation of agonistic versus PAM activity. Cells were cultured according to standard protocols (Freshney, 2000) in Dulbecco's Modified Eagle Medium with high glucose supplemented with 1 mM glutamine, 10% (vol/vol) heat-inactivated bovine calf serum, Penicillin/Streptomycin, 50 μg/ml hygromycin and 15 μg/ml blasticidin (all cell culture reagents and antibiotics from Invitrogen, Basel, Switzerland).
About 24 hrs before an experiment, 5×10^4 cells/well were seeded in poly-D-lysine coated, black/clear-bottomed 96-well plates. The cells were loaded with 2.5 μM Fluo-4AM in loading buffer (1×HBSS, 20 mM HEPES) for 1 hr at 37° C. and washed five times with loading buffer. The cells were transferred into a Functional Drug Screening System 7000 (Hamamatsu, Paris, France), and 11 half logarithmic serial dilutions of test compound at 37° C. were added and the cells were incubated for 10-30 min. with on-line recording of fluorescence. Following this pre-incubation step, the agonist L-glutamate was added to the cells at a concentration corresponding to EC20 (typically around 80 μM) with on-line recording of fluorescence; in order to account for day-to-day variations in the responsiveness of cells, the EC20 of glutamate was determined immediately ahead of each experiment by recording of a full dose-response curve of glutamate. Responses were measured as peak increase in fluorescence minus basal (i.e. fluorescence without addition of L-glutamate), normalized to the maximal stimulatory effect obtained with saturating concentrations of L-glutamate. Graphs were plotted with the % maximal stimulatory using XLfit, a curve fitting program that iteratively plots the data using Levenburg Marquardt algorithm. The single site competition analysis equation used was y=A+((B−A)/(1+((x/C)D))), where y is the % maximal stimulatory effect, A is the minimum y, B is the maximum y, C is the EC50, x is the log 10 of the concentration of the competing compound and D is the slope of the curve (the Hill Coefficient). From these curves the EC50 (concentration at which half maximal stimulation was achieved), the Hill coefficient as well as the maximal response (=Efficacy) in % of the maximal stimulatory effect obtained with saturating concentrations of L-glutamate were calculated.
A depression of the signal observed after addition of the EC20 concentration of L-glutamate was indicative of an inhibitory activity of the test compound.
The Intracellular Ca^2+ mobilization assay as described before was used for determination of EC50 values.

[1] = Glutathione (GSH) addition assay after metabolic activation; assay type: in vitro ADME, human; design: key: Samples for which the mass of a covalent adduct to a reactive metabolite was clearly detected are indicated as FLAG (positive); Compounds for which no adduct was detected are designated NO FLAG (negative); details: glutathione adduct detection after metabolic activation
Description: The assay conditions for the detection of glutathione conjugates follow the procedure described by C. M. Dieckhaus et al. in Chem. Res. Toxicol., 18, 630-638 (2005). Samples for which the mass of a covalent adduct to a reactive metabolite was clearly detected are indicated as FLAG (positive). Compounds for which no adduct was detected are designated NO FLAG (negative).
The “gold standard” CVB (covalent binding) assay, which detects the formation of covalent adducts by incubation of test compounds with human liver microsomes (HLM) needs to be conducted with 14C-labelled material. This is not appropriate for routine screening purposes. The glutathione assay after metabolic activation (see assay description) is appropriate for routine screening, and compounds that show significant activity in this assay are very likely to show activity in the CVB assay. […] Generally speaking, compounds of the present invention therefore have a clear advantage with respect to drug safety due to their much less pronounced tendency to form reactive metabolites compared to structurally similar compounds of prior art.

[2] = PAM activity in presence of EC20 L-glutamate, read-out: Ec50
[3] = PAM activity, read-out: EC50 (nM) mGlu5 PAM

SMILES	EC50 (human mGlu5a receptor; [2]) [nM]	EC50 (human mGlu5a receptor; [3]) [nM]	Emax (human mGlu5a receptor) [%]	GSH [HLM] [1]
O=C1OC[C@H]2CCC[C@H]2N1c1ccc(C#Cc2cc(F)ccc2F)cn1 [Ex. 4, (4aS,7aR)-1-[5-(2,5-Difluorophenylethynyl)-pyridin-2-yl]-hexahydro-cyclopenta[d]-[1,3]oxazin-2-one]	15	15	35	NO FLAG
O=C1OC[C@H]2CCC[C@H]2N1c1ccc(C#Cc2ccccc2)cn1 [Ex. 1, (4aS,7aR)-1-(5-Phenylethynyl-pyridin-2-yl)-hexahydro-cyclopenta[d][1,3]oxazin-2-one]	22	22	38	NO FLAG
O=C1O[C@H]2CCC[C@H]2CN1c1ccc(C#Cc2ccccc2)cn1 [Ref. Ex. 103]	27		123	FLAG
CC1(C)CCN(c2ccc(C#Cc3cc(F)ccc3F)cn2)C(=O)O1 [Ref. Ex. 81]	12		95	FLAG
CC1(C)COC(=O)N(c2ccc(C#Cc3ccccc3)cn2)C1 [Ref. Ex. 20]	27		135	
CC1(C)CCN(c2ccc(C#Cc3ccc(F)cc3)cn2)C(=O)O1 [Ref. Ex. 79]	22		85	FLAG
CC1(C)CCN(c2ccc(C#Cc3ccccc3)cn2)C(=O)O1 [Ref. Ex. 72]	10		86	FLAG
CC1(C)CCN(c2ccc(C#Cc3cccc(F)c3)cn2)C(=O)O1 [Ref. Ex. 76]	13		124	FLAG
O=C1OC[C@H]2CCC[C@H]2N1c1ccc(C#Cc2ccc(F)cc2)cn1 [Ex. 3, (4aS,7aR)-1-[5-(4-Fluorophenylethynyl)-pyridin-2-yl]-hexahydro-cyclopenta[d][1,3]oxazin-2-one]	10	10	40	NO FLAG
O=C1OC[C@H]2CCC[C@H]2N1c1ccc(C#Cc2cccc(F)c2)cn1 [Ex. 2, (4aS,7aR)-1-[5-(3-Fluorophenylethynyl)-pyridin-2-yl]-hexahydro-cyclopenta[d][1,3]oxazin-2-one]	10	10	43	NO FLAG
